The numbers were not newly measured in patent US20080292666A1, “Preparation for Preventing or Treating Calcium Deficiency Conditions In Mammals” (priority 2005, published 2008), which cites them from elsewhere.

The conditions of series [1]: for effect of oral drenches on blood Ca-concentrations: aqueous solutions or slurries, cows.
Series [2] deals with parturient paresis in dairy cows. The settings on record: 120 g calcium as calcium propionate cylinders vs 216 g as oily calcium chloride solution.
The conditions of series [3]: 75 g of calcium as paste, oral.

For the compound `CCC(=O)[O-].CCC(=O)[O-].[Ca+2]` [calcium propionate], in series [1], the “effect of oral drenches on blood Ca-concentrations” value is “effects lasted longer”. The “effectiveness in the prevention of milk fever” value in series [2] is listed as “as effective in the prevention of milk fever as was treatment with calcium chloride”. Further, in series [3], the “persistence of the increase in plasma calcium” value is recorded as “sustained for a longer period” and the “rapidity of plasma calcium increase” value is “did not increase plasma calcium as rapidly as 75° g. calcium as CaCl2”.
`[Ca+2].[Cl-].[Cl-]` [calcium chloride]: in series [1] (50 g of Ca as CaCl2), the “rise of plasma Ca-concentrations after oral CaCl2 compared with i.v.” value is on record as “raised plasma Ca-concentrations to the same extent as 4° g. of Ca as CaCl2 given i.v”. The “effect of oral drenches on blood Ca-concentrations” value in series [1] is “increased blood Ca-concentrations more quickly than did Ca-propionate”. For the same compound, the “total amount administered in 24 h not to be exceeded to avoid severe metabolic acidosis” value in series [1] (oral, 24 h (120 g of Ca)) is ≤ 288 g.
